Test results: the NIST ThermoML archive (doi:10.1016/j.jct.2008.06.016)
Numbers after ± are expanded uncertainties.

Experiment: molar heat capacity at constant pressure
Settings: 101.33 kPa, Crystal, Small sample (50 mg) DSC

NC(=O)c1ccccc1O [2-hydroxybenzamide]
molar heat capacity at constant pressure (280.4 K): 124.1 ± 1.9 J/K/mol | molar heat capacity at constant pressure (285.4 K): 126.3 ± 2 J/K/mol | molar heat capacity at constant pressure (290.4 K): 128.7 ± 2 J/K/mol | molar heat capacity at constant pressure (295.4 K): 130.9 ± 2 J/K/mol | molar heat capacity at constant pressure (300.4 K): 133.1 ± 2.1 J/K/mol | molar heat capacity at constant pressure (305.4 K): 135.6 ± 2.1 J/K/mol | molar heat capacity at constant pressure (310.4 K): 138 ± 2.2 J/K/mol | molar heat capacity at constant pressure (315.4 K): 140.5 ± 2.2 J/K/mol | molar heat capacity at constant pressure (320.4 K): 142.9 ± 2.2 J/K/mol | molar heat capacity at constant pressure (325.4 K): 145.5 ± 2.2 J/K/mol | molar heat capacity at constant pressure (330.4 K): 148.1 ± 2.3 J/K/mol | molar heat capacity at constant pressure (335.4 K): 150.5 ± 2.3 J/K/mol | molar heat capacity at constant pressure (340.4 K): 153.1 ± 2.4 J/K/mol | molar heat capacity at constant pressure (345.4 K): 155.6 ± 2.4 J/K/mol | molar heat capacity at constant pressure (350.4 K): 158.2 ± 2.4 J/K/mol | molar heat capacity at constant pressure (355.4 K): 160.6 ± 2.5 J/K/mol | molar heat capacity at constant pressure (360.4 K): 163.3 ± 2.5 J/K/mol | molar heat capacity at constant pressure (365.4 K): 165.6 ± 2.6 J/K/mol | molar heat capacity at constant pressure (370.4 K): 168.1 ± 2.6 J/K/mol | molar heat capacity at constant pressure (375.4 K): 170.3 ± 2.7 J/K/mol | molar heat capacity at constant pressure (380.4 K): 172.9 ± 2.7 J/K/mol | molar heat capacity at constant pressure (385.4 K): 175.4 ± 2.7 J/K/mol | molar heat capacity at constant pressure (390.4 K): 177.9 ± 2.7 J/K/mol | molar heat capacity at constant pressure (395.4 K): 180.6 ± 2.8 J/K/mol

O=C(O)c1ccccc1O [2-hydroxybenzoic acid]
molar heat capacity at constant pressure (280.4 K): 128.5 ± 2 J/K/mol | molar heat capacity at constant pressure (285.5 K): 130 ± 2 J/K/mol | molar heat capacity at constant pressure (290.5 K): 131.6 ± 2.1 J/K/mol | molar heat capacity at constant pressure (295.4 K): 133.5 ± 2.1 J/K/mol | molar heat capacity at constant pressure (300.4 K): 135.4 ± 2.1 J/K/mol | molar heat capacity at constant pressure (305.4 K): 137.4 ± 2.2 J/K/mol | molar heat capacity at constant pressure (310.4 K): 139.4 ± 2.2 J/K/mol | molar heat capacity at constant pressure (315.4 K): 141.4 ± 2.2 J/K/mol | molar heat capacity at constant pressure (320.4 K): 143.5 ± 2.2 J/K/mol | molar heat capacity at constant pressure (325.4 K): 145.5 ± 2.2 J/K/mol | molar heat capacity at constant pressure (330.4 K): 147.6 ± 2.3 J/K/mol | molar heat capacity at constant pressure (335.4 K): 149.8 ± 2.3 J/K/mol | molar heat capacity at constant pressure (340.4 K): 151.8 ± 2.3 J/K/mol | molar heat capacity at constant pressure (345.4 K): 154.1 ± 2.4 J/K/mol | molar heat capacity at constant pressure (350.4 K): 156.2 ± 2.4 J/K/mol | molar heat capacity at constant pressure (355.4 K): 158.2 ± 2.4 J/K/mol | molar heat capacity at constant pressure (360.4 K): 160.3 ± 2.5 J/K/mol | molar heat capacity at constant pressure (365.4 K): 162.3 ± 2.5 J/K/mol | molar heat capacity at constant pressure (370.4 K): 164.2 ± 2.6 J/K/mol | molar heat capacity at constant pressure (375.4 K): 165.9 ± 2.6 J/K/mol | molar heat capacity at constant pressure (380.4 K): 168 ± 2.6 J/K/mol | molar heat capacity at constant pressure (385.4 K): 170.1 ± 2.7 J/K/mol | molar heat capacity at constant pressure (390.4 K): 172.1 ± 2.7 J/K/mol | molar heat capacity at constant pressure (395.5 K): 173.8 ± 2.7 J/K/mol | molar heat capacity at constant pressure (400.5 K): 175.6 ± 2.7 J/K/mol | molar heat capacity at constant pressure (405.5 K): 177.5 ± 2.7 J/K/mol

O=C(O)c1cccc(O)c1 [3-hydroxybenzoic acid]
molar heat capacity at constant pressure (280.4 K): 134.6 ± 2.1 J/K/mol | molar heat capacity at constant pressure (285.5 K): 136.8 ± 2.1 J/K/mol | molar heat capacity at constant pressure (290.5 K): 138.9 ± 2.2 J/K/mol | molar heat capacity at constant pressure (295.4 K): 141.2 ± 2.2 J/K/mol | molar heat capacity at constant pressure (300.4 K): 143.5 ± 2.2 J/K/mol | molar heat capacity at constant pressure (305.4 K): 145.8 ± 2.2 J/K/mol | molar heat capacity at constant pressure (310.4 K): 147.9 ± 2.3 J/K/mol | molar heat capacity at constant pressure (315.4 K): 150.2 ± 2.3 J/K/mol | molar heat capacity at constant pressure (320.4 K): 152.7 ± 2.3 J/K/mol | molar heat capacity at constant pressure (325.5 K): 155 ± 2.4 J/K/mol | molar heat capacity at constant pressure (330.5 K): 157.4 ± 2.4 J/K/mol | molar heat capacity at constant pressure (335.5 K): 159.7 ± 2.5 J/K/mol | molar heat capacity at constant pressure (340.5 K): 162.2 ± 2.5 J/K/mol | molar heat capacity at constant pressure (345.5 K): 164.5 ± 2.6 J/K/mol | molar heat capacity at constant pressure (350.4 K): 166.9 ± 2.6 J/K/mol | molar heat capacity at constant pressure (355.4 K): 169.1 ± 2.7 J/K/mol | molar heat capacity at constant pressure (360.4 K): 171.3 ± 2.7 J/K/mol | molar heat capacity at constant pressure (365.4 K): 173.7 ± 2.7 J/K/mol | molar heat capacity at constant pressure (370.4 K): 175.9 ± 2.7 J/K/mol | molar heat capacity at constant pressure (375.4 K): 177.9 ± 2.7 J/K/mol | molar heat capacity at constant pressure (380.4 K): 180.8 ± 2.8 J/K/mol | molar heat capacity at constant pressure (385.4 K): 183.8 ± 2.8 J/K/mol | molar heat capacity at constant pressure (390.5 K): 186.3 ± 2.9 J/K/mol | molar heat capacity at constant pressure (395.5 K): 188.7 ± 2.9 J/K/mol | molar heat capacity at constant pressure (400.5 K): 190.6 ± 3 J/K/mol | molar heat capacity at constant pressure (405.5 K): 192.6 ± 3 J/K/mol | molar heat capacity at constant pressure (410.5 K): 194.6 ± 3 J/K/mol | molar heat capacity at constant pressure (415.5 K): 196.6 ± 3.1 J/K/mol | molar heat capacity at constant pressure (420.5 K): 198.3 ± 3.1 J/K/mol | molar heat capacity at constant pressure (425.5 K): 200.3 ± 3.1 J/K/mol | molar heat capacity at constant pressure (430.5 K): 202.5 ± 3.2 J/K/mol | molar heat capacity at constant pressure (435.5 K): 205 ± 3.2 J/K/mol | molar heat capacity at constant pressure (440.5 K): 207.5 ± 3.2 J/K/mol | molar heat capacity at constant pressure (445.5 K): 209.9 ± 3.2 J/K/mol | molar heat capacity at constant pressure (450.5 K): 212.1 ± 3.3 J/K/mol | molar heat capacity at constant pressure (455.5 K): 214.8 ± 3.3 J/K/mol | molar heat capacity at constant pressure (460.4 K): 218.8 ± 3.4 J/K/mol

O=C(O)c1ccc(O)cc1 [4-hydroxybenzoic acid]
molar heat capacity at constant pressure (280.8 K): 138.9 ± 2.2 J/K/mol | molar heat capacity at constant pressure (285.8 K): 141.3 ± 2.2 J/K/mol | molar heat capacity at constant pressure (290.8 K): 143.5 ± 2.2 J/K/mol | molar heat capacity at constant pressure (295.8 K): 145.7 ± 2.2 J/K/mol | molar heat capacity at constant pressure (300.7 K): 148 ± 2.3 J/K/mol | molar heat capacity at constant pressure (305.8 K): 149.7 ± 2.3 J/K/mol | molar heat capacity at constant pressure (310.8 K): 151.8 ± 2.3 J/K/mol | molar heat capacity at constant pressure (315.8 K): 154.6 ± 2.4 J/K/mol | molar heat capacity at constant pressure (320.8 K): 156.4 ± 2.4 J/K/mol | molar heat capacity at constant pressure (325.8 K): 158.7 ± 2.5 J/K/mol | molar heat capacity at constant pressure (330.8 K): 161.4 ± 2.5 J/K/mol | molar heat capacity at constant pressure (335.8 K): 163.8 ± 2.6 J/K/mol | molar heat capacity at constant pressure (340.8 K): 166.3 ± 2.6 J/K/mol | molar heat capacity at constant pressure (345.8 K): 168.6 ± 2.6 J/K/mol | molar heat capacity at constant pressure (350.8 K): 171.1 ± 2.7 J/K/mol | molar heat capacity at constant pressure (355.8 K): 173.4 ± 2.7 J/K/mol | molar heat capacity at constant pressure (360.8 K): 175.5 ± 2.7 J/K/mol | molar heat capacity at constant pressure (365.7 K): 177.8 ± 2.7 J/K/mol | molar heat capacity at constant pressure (370.7 K): 180 ± 2.8 J/K/mol | molar heat capacity at constant pressure (375.7 K): 182 ± 2.8 J/K/mol | molar heat capacity at constant pressure (380.8 K): 184.4 ± 2.8 J/K/mol | molar heat capacity at constant pressure (385.8 K): 186.7 ± 2.9 J/K/mol | molar heat capacity at constant pressure (390.8 K): 188.9 ± 2.9 J/K/mol | molar heat capacity at constant pressure (395.8 K): 191 ± 3 J/K/mol | molar heat capacity at constant pressure (400.8 K): 193.1 ± 3 J/K/mol | molar heat capacity at constant pressure (405.8 K): 195.1 ± 3 J/K/mol | molar heat capacity at constant pressure (410.8 K): 197 ± 3.1 J/K/mol | molar heat capacity at constant pressure (415.8 K): 198.7 ± 3.1 J/K/mol | molar heat capacity at constant pressure (420.8 K): 200.4 ± 3.1 J/K/mol | molar heat capacity at constant pressure (425.8 K): 202.2 ± 3.2 J/K/mol | molar heat capacity at constant pressure (430.8 K): 204.5 ± 3.2 J/K/mol | molar heat capacity at constant pressure (435.8 K): 207.1 ± 3.2 J/K/mol | molar heat capacity at constant pressure (440.8 K): 209.5 ± 3.2 J/K/mol | molar heat capacity at constant pressure (445.8 K): 211.6 ± 3.2 J/K/mol | molar heat capacity at constant pressure (450.8 K): 213.8 ± 3.3 J/K/mol | molar heat capacity at constant pressure (455.8 K): 215.9 ± 3.3 J/K/mol | molar heat capacity at constant pressure (460.7 K): 218.2 ± 3.4 J/K/mol
